Values joined by “and” are separate entries in the source; they are usually repeats but may differ in a detail not shown here. Equal values may be shown once.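 Dose response: 5 concentrations. Exposure: 48 h. Format: 96-well plates. Endpoint: linear interpolation; highest concentration if not reached. The concentration for 50% growth inhibition is given as GI50. TGI denotes the concentration required for complete inhibition of growth.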
Assays:
Assay in all cases: inhibition of tumour cell growth, NCI panel, 48 h
[1] = tested on: EKVX NSCLC
[2] = tested on: DU-145 prostate
[3] = tested on: MCF7 breast
[4] = tested on: SK-MEL-2 melanoma
[5] = tested on: SF-268 CNS
[6] = tested on: HCT-116 colon
[7] = tested on: A549 NSCLC
[8] = tested on: U251 CNS
[9] = tested on: NCI-H522 lung
[10] = tested on: ACHN renal

| Compound | TGI [1] | TGI [2] [µM] | TGI [3] | TGI [4] | TGI [5] | TGI [6] | TGI [7] | TGI [8] | TGI [9] | TGI [10] [µM] | GI50 [1] [µM] | GI50 [3] [µM] | GI50 [4] [µM] | GI50 [5] [µM] | GI50 [7] [µM] | GI50 [8] [µM] | GI50 [9] [µM] |
| --- | --- | --- | --- | --- | --- | --- | --- | --- | --- | --- | --- | --- | --- | --- | --- | --- | --- |
| Cn1c(=O)oc2nc(-c3ccccc3)cc(C(F)(F)F)c21 | > 100 µM | > 100 | > 100 µM | > 100 µM | > 100 µM | > 100 µM | > 100 µM | > 100 µM | > 100 µM | > 100 | – | – | – | – | – | – | – |
| CCN(CC)C(=S)SS(=O)(=O)c1cccc(N)c1 | > 100 µM | > 100 | > 100 µM | > 100 µM | > 100 µM | > 100 µM | > 100 µM | > 100 µM | > 100 µM | > 100 | – | – | – | – | – | – | – |
| O=C1OC[C@H]2[C@@H]1[C@H]1O[C@@H]2C2=C(CCC2)C1=O | > 100 µM | > 100 | > 100 µM | > 100 µM | > 100 µM | > 100 µM | > 100 µM | > 100 µM | > 100 µM | > 100 | – | – | – | – | – | – | – |
| CC1=C2C(=CO[C@H](C)[C@H]2C)C(=O)C(C(=O)O)=C1O | 83.6 µM and 63.2 µM | 68.3 | 52.8 µM and 51.9 µM | 48.1 µM and 37.5 µM | 59.2 µM and 38.2 µM | 82.2 µM and 78.5 µM | 142 µM and > 88.1 µM | 43.4 µM and 41 µM | 36.4 µM and 34.4 µM | 46.7 | 28.9 | 24.5 | 18.7 | 22 | 31.1 | 18.8 | 18.5 |
| C=C=C(CC(CC(=C)Br)(C(=O)OC)C(=O)OC)S(=O)(=O)c1ccccc1 | 10.8 µM | 3.35 | 16.4 µM | 8.22 µM | 7.45 µM | 2.22 µM | 10.6 µM | 2.95 µM | 1.76 µM | 6.83 | – | – | – | – | – | – | – |
| NN=C(CC(O)(C(F)(F)Cl)C(F)(F)Cl)CC(O)(C(F)(F)Cl)C(F)(F)Cl | > 10 µM | > 10 | > 10 µM | > 10 µM | > 10 µM | > 10 µM | > 10 µM | > 10 µM | > 10 µM | > 10 | – | – | – | – | – | – | – |
| CCOC(=O)c1cc(C)nc2c1c(=O)n(-c1ccccc1)c(=O)n2CCCCN1CCN(c2ccccc2)CC1 | > 100 µM | > 100 | > 100 µM | > 100 µM | > 100 µM | > 100 µM | > 100 µM | > 100 µM | > 100 µM | > 100 | – | – | – | – | – | – | – |
| COc1cc(C2C3=C(COC3=O)Oc3cc4c(cc32)OCO4)cc(OC)c1O (configuration not stated) | 94.1 µM | 0.391 | > 48.2 µM | 2.51 µM | 26.8 µM | 0.208 µM | > 60.6 µM | 14 µM | < 0.088 µM | 22.9 | – | – | – | – | – | – | – |
| COc1ccc(OC)c(SC(CC(=O)c2ccccc2)c2ccccc2)c1 (configuration not stated) | 31.1 µM | 21.9 | 13.7 µM | 36.1 µM | 40.2 µM | 11 µM | 91.7 µM | 31 µM | 29.2 µM | 39 | – | – | – | – | – | – | – |
| O=C(CCN1CCN2c3ccccc3CCC2C1)c1ccc(F)cc1 (configuration not stated) | 58.5 µM | 90.3 | 51.3 µM | 53.3 µM | > 100 µM | > 100 µM | > 100 µM | > 100 µM | 35.7 µM | 43.3 | – | – | – | – | – | – | – |
| O=c1[nH]n(Cc2ccccc2)c2ccc([N+](=O)[O-])cc12 | > 100 µM | > 100 | > 100 µM | > 100 µM | > 100 µM | > 100 µM | > 100 µM | > 100 µM | > 100 µM | > 100 | – | – | – | – | – | – | – |
| CC(C)C(C/C=C1\CC(CO)(COC(=O)C2CCCCC2)OC1=O)C(C)C (configuration not stated) | 41.2 µM | 26.9 | 39 µM | > 100 µM | 33.5 µM | 36.5 µM | 32 µM | 44.1 µM | 31.8 µM | 32.3 | – | – | – | – | – | – | – |
| CN(C)/N=N/c1nc2c(c(=O)n(C)c(=O)n2C)n1CC(O)CO (configuration not stated) | > 100 µM | > 100 | > 100 µM | > 100 µM | > 100 µM | > 100 µM | > 100 µM | > 100 µM | > 100 µM | > 100 | – | – | – | – | – | – | – |
| Cc1cc(C)c2c(c1)C(=O)/C(=C/c1ccccc1C(=O)O)C2 | > 100 µM | > 100 | > 100 µM | > 100 µM | > 100 µM | > 100 µM | > 100 µM | > 100 µM | > 100 µM | > 100 | – | – | – | – | – | – | – |
| CCOC(=O)c1cc2c([N+](=O)[O-])c(N)ccc2s1 | > 100 µM | > 100 | > 100 µM | > 100 µM | > 100 µM | > 100 µM | > 100 µM | > 100 µM | > 100 µM | > 100 | – | – | – | – | – | – | – |
| CCc1cc2c(c3c1CCCC3=O)CC1(Cc3ccc(C(=O)OC)cc3C1)C2 (configuration not stated) | > 100 µM | > 100 | > 100 µM | > 100 µM | > 100 µM | > 100 µM | > 100 µM | > 100 µM | > 100 µM | > 100 | – | – | – | – | – | – | – |

— PubChem BioAssay (NCI)
